From US20230203023A1, “SALT AND CRYSTAL FORMS OF GLP-1R AGONISTS AND USES THEREOF” (QILU REGOR THERAPEUTICS INC., priority 2020, published 2023)
Counter-ions that a name gives are not always drawn. Like-named read-outs stand apart in the source and are kept apart here.

Assays:
Type in all cases: physicochemical
[1] = Kinetic solubility test in water and bio-relevant media (SGF, FaSSIF, FeSSIF); settings: for Purity (%), area percentage of API: for reference only (suspensions); for FC: form change: residual solids by XRPD; for pH: supernatant
How it was run: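 Solids (~1 mg/mL loading as freeform) rolled at 25 rpm, 37° C in water, SGF (pH 1.8), FaSSIF (pH 6.5) or FeSSIF (pH 5.0). Sampled at 1, 4 and 24 h, centrifuged and filtered (0.45 μm PTFE). Supernatant concentration by HPLC, with pH measured; residual solids checked by XRPD.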

[2] = Polymorph screening; settings: solution crystallization and solid transition methods
Protocol: Polymorph screening experiments on 1:1 Compound I Tris Salt (Form A) were performed under vairous conditions using different solution crystallization or solid transition methods, including anti-solvent addition, reverse anti-solvent addition, slow evaporation, slow cooling, slurry at RT, slurry at 50° C., slurry cycling 5-50° C., vapor-solid diffusion, vapor-solution diffusion, polymer induced crystallization, and grinding.

[3] = VH-XRPD, dehydration of the hydrate
Protocol: VH-XRPD and single crystal structure determination were performed for 1:1 Compound I Tris Salt (Form A) and it was identified as a monohydrate, which would dehydrate at the ≤30%RH condition.
VH-XRPD was performed for a 1:1 Compound II tris salt (Form B) sample for further identification. […] Combining the characterization results, it is believe that 1:1 Compound II tris salt (Form B) is a hydrate, which would dehydrate below ≤10% RH.

[4] = Solid stability evaluation (II/II), HPLC in triplicate
Protocol: The chemical stability of 1:1 Compound II Citrate Salt (Form A) and 1:1 Compound II Tris Salt (Form B) was further evaluated at solid state, samples were stored under the ambient condition or 40° C./75% RH for 1 day and 3 days, respectively.

O=C(O)c1ccc2nc(CN3CC=C(c4cccc(OCc5ccc(Cl)cc5F)c4)CC3)n(C[C@@H]3CCO3)c2c1 [Tris salt Form A, (S)-2-((4-(3-((4-chloro-2-fluorobenzyl)-oxy)phenyl)-3,6-dihydropyridin-1(2H)-yl)methyl)-1-(oxetan-2-ylmethyl)-1H-benzo[d]-imidazole-6-carboxylic acid]
Purity (%), area percentage of API ([1]; FaSSIF, 1 hour): 92.63% | S: solubility ([1]; FaSSIF, 4 hours, 37° C.): 10 µg/mL | S: solubility ([1]; FaSSIF, 24 hours, 37° C.): 10 µg/mL | Purity (%), area percentage of API ([1]; FaSSIF, 24 hours): 58.70% | Purity (%), area percentage of API ([1]; FeSSIF, 1 hour): 94.61% | S: solubility ([1]; FeSSIF, 4 hours, 37° C.): 200 µg/mL | Purity (%), area percentage of API ([1]; FeSSIF, 4 hours): 81.75% | S: solubility ([1]; FeSSIF, 24 hours, 37° C.): 30 µg/mL | Purity (%), area percentage of API ([1]; FeSSIF, 24 hours): 43.32% | S: solubility ([1]; H2O, 1 hour, 37° C.): 100 µg/mL | Purity (%), area percentage of API ([1]; H2O, 1 hour): 96.74% | S: solubility ([1]; H2O, 4 hours, 37° C.): 100 µg/mL | Purity (%), area percentage of API ([1]; H2O, 4 hours): 89.77% | Purity (%), area percentage of API ([1]; H2O, 24 hours): 60.35% | Solubility in H2O, comparison in words ([1]; H2O, compared with the other tested materials): better solubility | solubility at 1 h ([1]; SGF, 37 °C, pH 1.8, simulated gastric fluid, thermodynamic from solid, SGF, 1 hour, 37° C., read-out: S: solubility): 400 µg/mL | solubility at 4 h ([1]; SGF, 37 °C, pH 1.8, simulated gastric fluid, thermodynamic from solid, SGF, 4 hours, 37° C., read-out: S: solubility): 400 µg/mL | solubility at 24 h ([1]; SGF, 37 °C, pH 1.8, simulated gastric fluid, thermodynamic from solid, SGF, 24 hours, 37° C., read-out: S: solubility): 500 µg/mL | Purity (%), area percentage of API ([1]; SGF, 1 hour): 93.12% | Purity (%), area percentage of API ([1]; SGF, 4 hours): 93.05% | Purity (%), area percentage of API ([1]; SGF, 24 hours): 89.49% | Form change in SGF, in words ([1]; SGF, XRPD after solubility test): Form change was observed | FC: form change ([1]; FaSSIF, 24 hours): No | FC: form change ([1]; SGF, 1 hour): Yes | FC: form change ([1]; SGF, 4 hours): Yes | FC: form change ([1]; SGF, 24 hours): Yes | pH ([1]; FaSSIF, 4 hours): 6.6 | pH ([1]; FaSSIF, 24 hours): 6.6 | pH ([1]; FeSSIF, 1 hour): 5.1 | pH ([1]; H2O, 1 hour): 8.0 | pH ([1]; H2O, 4 hours): 8.2 | pH ([1]; H2O, 24 hours): 8.4 | pH ([1]; SGF, 1 hour): 1.9 | pH ([1]; SGF, 4 hours): 2.0 | pH ([1]; SGF, 24 hours): 1.9 | solubility at 24 h ([1]; water, 37 °C, water, thermodynamic from solid, H2O, 24 hours, 37° C., read-out: S: solubility): 50 µg/mL | Form change in polymorph screening [2]: did not change under most of the test conditions | Relative humidity at which the hydrate would dehydrate [3]: ≤ 30 % RH | Ave. Purity (area %) ([4]; 40° C./75% RH (open), 1 day): 94.8 area % | Ave. Purity (area %) ([4]; 40° C./75% RH (open), 3 days): 94.7 area % | Ave. Purity (area %) ([4]; Ambient condition (open), 1 day): 94.8 area % | Ave. Purity (area %) ([4]; Ambient condition (open), 3 days): 94.8 area % | Ave. Purity (area %) ([4]; Initial): 94.5 area % | Chemical stability at solid state, in words ([4]; ambient condition or 40° C./75% RH, 1 day and 3 days): better chemical stability
